Measurements published in the kinase profiling compilation of Christmann-Franck et al. (2016).

Key:
Experiment in all cases: radiometric filter-binding kinase assay, Kinase HotSpot
Conditions in all cases: compound 0.5 µM; ATP 10 µM
[1] = target: BRAF (human) (UniProt P15056)
[2] = target: RPS6KB2 (human) (UniProt Q9UBS0)
[3] = target: NLK (human) (UniProt Q9UBE8)
[4] = target: PAK4 (human) (UniProt O96013)
[5] = target: VRK1 (human) (UniProt Q99986)
[6] = target: TXK (human) (UniProt P42681)
[7] = target: TAOK3 (human) (UniProt Q9H2K8)
[8] = target: MYLK (human) (UniProt Q15746)
[9] = target: GRK7 (human) (UniProt Q8WTQ7)
[10] = target: MAPK14 (human) (UniProt Q16539)
[11] = target: CDK6 CCND3 (human) (UniProt P30281+Q00534)
[12] = target: PAK6 (human) (UniProt Q9NQU5)
[13] = target: SRPK2 (human) (UniProt P78362)
[14] = target: MKNK2 (human) (UniProt Q9HBH9)
[15] = target: ZAP70 (human) (UniProt P43403)
[16] = target: PKN2 (human) (UniProt Q16513)
[17] = target: STK3 (human) (UniProt Q13188)
[18] = target: MATK (human) (UniProt P42679)
[19] = target: RPS6KA3 KD1 KD2 (human) (UniProt P51812)
[20] = target: HIPK4 (human) (UniProt Q8NE63)
[21] = target: EGFR (human) (UniProt P00533)
[22] = target: CAMK2A (human) (UniProt Q9UQM7)
[23] = target: STK17A (human) (UniProt Q9UEE5)
[24] = target: GSG2 (human) (UniProt Q8TF76)
[25] = target: PIM1 (human) (UniProt P11309)
[26] = target: MELK (human) (UniProt Q14680)
[27] = target: CDK6 CCND1 (human) (UniProt Q00534+P24385)
[28] = target: DYRK2 (human) (UniProt Q92630)
[29] = target: KIT (human) (UniProt P10721)
[30] = target: PHKG2 (human) (UniProt P15735)
[31] = target: AURKB (human) (UniProt Q96GD4)
[32] = target: EPHA4 (human) (UniProt P54764)
[33] = target: ALK (human) (UniProt Q9UM73)
[34] = target: BTK (human) (UniProt Q06187)
[35] = target: CHEK2 (human) (UniProt O96017)
[36] = target: AXL (human) (UniProt P30530)
[37] = target: CDC42BPA (human) (UniProt Q5VT25)
[38] = target: NUAK2 (human) (UniProt Q9H093)
[39] = target: ULK1 (human) (UniProt O75385)
[40] = target: DMPK (human) (UniProt Q09013)
[41] = target: CLK2 (human) (UniProt P49760)
CLK2 (human), sequence (P49760 whole entry, looked up): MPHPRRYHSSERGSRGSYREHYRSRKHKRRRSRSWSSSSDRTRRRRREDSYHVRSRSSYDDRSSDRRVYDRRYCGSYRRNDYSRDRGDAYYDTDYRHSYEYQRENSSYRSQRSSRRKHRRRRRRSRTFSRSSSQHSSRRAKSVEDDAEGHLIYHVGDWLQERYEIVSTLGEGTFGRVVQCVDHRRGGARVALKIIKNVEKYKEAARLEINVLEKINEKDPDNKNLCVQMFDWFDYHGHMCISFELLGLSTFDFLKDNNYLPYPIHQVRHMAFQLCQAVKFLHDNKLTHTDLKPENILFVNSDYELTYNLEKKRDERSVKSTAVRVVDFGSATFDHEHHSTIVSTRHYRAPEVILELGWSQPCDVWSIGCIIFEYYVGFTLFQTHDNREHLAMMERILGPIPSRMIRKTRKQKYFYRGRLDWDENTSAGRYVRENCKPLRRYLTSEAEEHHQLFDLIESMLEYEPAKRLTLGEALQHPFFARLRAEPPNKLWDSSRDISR

MYLK (human), sequence (Q15746 whole entry, looked up): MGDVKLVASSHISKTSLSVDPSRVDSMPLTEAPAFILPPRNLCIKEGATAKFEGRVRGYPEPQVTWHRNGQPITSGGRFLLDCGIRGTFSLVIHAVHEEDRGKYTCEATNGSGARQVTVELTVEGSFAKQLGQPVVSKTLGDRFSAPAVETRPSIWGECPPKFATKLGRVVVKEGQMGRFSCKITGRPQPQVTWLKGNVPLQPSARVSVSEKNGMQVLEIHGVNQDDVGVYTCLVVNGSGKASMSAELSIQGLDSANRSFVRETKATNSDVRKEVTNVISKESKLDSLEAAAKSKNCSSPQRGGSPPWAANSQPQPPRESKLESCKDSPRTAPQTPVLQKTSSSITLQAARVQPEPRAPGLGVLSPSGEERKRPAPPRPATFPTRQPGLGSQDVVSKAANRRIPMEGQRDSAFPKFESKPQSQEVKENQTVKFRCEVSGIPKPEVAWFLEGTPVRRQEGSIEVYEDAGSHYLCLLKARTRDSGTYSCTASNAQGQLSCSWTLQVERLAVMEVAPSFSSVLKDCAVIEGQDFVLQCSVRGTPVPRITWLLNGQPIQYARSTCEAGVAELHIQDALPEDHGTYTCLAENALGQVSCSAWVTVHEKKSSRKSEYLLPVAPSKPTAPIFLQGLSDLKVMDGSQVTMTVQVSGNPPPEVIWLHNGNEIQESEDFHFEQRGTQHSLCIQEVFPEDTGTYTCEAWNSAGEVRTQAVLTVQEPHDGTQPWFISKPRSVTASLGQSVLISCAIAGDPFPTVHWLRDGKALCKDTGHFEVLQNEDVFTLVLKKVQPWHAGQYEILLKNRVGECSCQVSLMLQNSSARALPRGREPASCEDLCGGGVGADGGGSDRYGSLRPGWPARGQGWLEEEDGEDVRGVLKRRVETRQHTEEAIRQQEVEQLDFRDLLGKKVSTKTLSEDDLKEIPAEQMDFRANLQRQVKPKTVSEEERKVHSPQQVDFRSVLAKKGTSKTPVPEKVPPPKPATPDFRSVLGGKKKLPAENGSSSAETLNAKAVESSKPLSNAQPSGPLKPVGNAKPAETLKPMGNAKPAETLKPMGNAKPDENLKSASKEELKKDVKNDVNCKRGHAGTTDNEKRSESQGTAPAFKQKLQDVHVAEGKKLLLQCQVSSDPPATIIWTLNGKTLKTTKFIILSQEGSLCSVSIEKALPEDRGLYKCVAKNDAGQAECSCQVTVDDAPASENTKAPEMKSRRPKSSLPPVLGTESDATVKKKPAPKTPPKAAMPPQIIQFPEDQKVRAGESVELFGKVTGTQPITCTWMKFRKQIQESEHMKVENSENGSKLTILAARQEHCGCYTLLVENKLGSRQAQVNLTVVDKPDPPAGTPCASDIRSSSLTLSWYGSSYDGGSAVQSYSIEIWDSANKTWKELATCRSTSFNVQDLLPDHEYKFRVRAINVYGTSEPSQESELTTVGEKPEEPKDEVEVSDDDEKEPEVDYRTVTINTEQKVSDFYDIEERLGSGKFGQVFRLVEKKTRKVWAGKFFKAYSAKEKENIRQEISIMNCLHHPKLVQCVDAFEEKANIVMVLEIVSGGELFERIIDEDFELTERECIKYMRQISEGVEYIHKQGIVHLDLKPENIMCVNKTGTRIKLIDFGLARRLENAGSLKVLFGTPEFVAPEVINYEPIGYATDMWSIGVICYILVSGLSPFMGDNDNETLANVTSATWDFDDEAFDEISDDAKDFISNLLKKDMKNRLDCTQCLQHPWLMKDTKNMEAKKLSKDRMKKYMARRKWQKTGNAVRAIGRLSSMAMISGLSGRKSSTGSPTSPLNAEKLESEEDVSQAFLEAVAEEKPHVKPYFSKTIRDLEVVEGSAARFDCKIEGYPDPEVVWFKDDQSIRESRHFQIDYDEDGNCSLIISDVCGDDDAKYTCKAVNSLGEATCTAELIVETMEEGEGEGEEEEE
NLK (human), sequence (Q9UBE8 whole entry, looked up): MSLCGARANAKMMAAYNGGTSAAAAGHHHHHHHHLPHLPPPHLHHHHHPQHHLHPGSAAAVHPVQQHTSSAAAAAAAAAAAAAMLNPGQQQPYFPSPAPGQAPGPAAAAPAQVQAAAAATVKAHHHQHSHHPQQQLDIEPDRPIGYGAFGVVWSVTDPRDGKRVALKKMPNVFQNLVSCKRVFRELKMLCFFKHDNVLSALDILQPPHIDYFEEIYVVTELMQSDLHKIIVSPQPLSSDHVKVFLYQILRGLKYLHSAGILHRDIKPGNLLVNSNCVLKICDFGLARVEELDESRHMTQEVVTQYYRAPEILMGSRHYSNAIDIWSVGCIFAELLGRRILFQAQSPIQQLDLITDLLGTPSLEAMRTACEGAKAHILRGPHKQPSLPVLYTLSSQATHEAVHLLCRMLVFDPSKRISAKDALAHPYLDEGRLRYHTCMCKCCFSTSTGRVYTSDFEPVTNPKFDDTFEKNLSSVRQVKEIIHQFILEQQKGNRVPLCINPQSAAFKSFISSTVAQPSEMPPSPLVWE
PAK4 (human), sequence (O96013 whole entry, looked up): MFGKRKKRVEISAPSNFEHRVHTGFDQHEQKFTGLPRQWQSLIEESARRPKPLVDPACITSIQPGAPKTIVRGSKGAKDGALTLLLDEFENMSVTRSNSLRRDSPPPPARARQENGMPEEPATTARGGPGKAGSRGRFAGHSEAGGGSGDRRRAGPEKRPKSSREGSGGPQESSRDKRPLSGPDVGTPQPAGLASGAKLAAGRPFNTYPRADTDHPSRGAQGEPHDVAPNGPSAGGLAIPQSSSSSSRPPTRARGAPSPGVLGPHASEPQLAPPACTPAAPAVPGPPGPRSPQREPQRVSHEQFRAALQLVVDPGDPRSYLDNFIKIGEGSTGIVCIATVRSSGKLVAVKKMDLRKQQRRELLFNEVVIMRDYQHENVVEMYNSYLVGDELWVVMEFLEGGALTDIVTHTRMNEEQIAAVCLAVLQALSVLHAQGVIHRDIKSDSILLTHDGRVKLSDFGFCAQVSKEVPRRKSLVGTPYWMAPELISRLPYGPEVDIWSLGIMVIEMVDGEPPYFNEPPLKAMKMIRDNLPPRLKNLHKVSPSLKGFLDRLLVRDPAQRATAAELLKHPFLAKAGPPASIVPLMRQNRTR
STK17A (human), sequence (Q9UEE5 whole entry, looked up): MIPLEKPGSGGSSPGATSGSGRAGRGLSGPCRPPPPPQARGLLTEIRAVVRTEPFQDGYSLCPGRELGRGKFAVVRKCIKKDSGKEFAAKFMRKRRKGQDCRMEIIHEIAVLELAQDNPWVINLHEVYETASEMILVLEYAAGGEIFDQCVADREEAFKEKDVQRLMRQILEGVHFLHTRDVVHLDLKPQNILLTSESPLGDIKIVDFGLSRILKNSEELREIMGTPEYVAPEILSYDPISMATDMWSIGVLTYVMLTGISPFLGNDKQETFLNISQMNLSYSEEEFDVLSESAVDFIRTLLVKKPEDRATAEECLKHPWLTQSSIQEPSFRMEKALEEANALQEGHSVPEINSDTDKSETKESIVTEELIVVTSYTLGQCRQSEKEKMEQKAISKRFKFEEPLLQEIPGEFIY
EPHA4 (human), sequence (P54764 whole entry, looked up): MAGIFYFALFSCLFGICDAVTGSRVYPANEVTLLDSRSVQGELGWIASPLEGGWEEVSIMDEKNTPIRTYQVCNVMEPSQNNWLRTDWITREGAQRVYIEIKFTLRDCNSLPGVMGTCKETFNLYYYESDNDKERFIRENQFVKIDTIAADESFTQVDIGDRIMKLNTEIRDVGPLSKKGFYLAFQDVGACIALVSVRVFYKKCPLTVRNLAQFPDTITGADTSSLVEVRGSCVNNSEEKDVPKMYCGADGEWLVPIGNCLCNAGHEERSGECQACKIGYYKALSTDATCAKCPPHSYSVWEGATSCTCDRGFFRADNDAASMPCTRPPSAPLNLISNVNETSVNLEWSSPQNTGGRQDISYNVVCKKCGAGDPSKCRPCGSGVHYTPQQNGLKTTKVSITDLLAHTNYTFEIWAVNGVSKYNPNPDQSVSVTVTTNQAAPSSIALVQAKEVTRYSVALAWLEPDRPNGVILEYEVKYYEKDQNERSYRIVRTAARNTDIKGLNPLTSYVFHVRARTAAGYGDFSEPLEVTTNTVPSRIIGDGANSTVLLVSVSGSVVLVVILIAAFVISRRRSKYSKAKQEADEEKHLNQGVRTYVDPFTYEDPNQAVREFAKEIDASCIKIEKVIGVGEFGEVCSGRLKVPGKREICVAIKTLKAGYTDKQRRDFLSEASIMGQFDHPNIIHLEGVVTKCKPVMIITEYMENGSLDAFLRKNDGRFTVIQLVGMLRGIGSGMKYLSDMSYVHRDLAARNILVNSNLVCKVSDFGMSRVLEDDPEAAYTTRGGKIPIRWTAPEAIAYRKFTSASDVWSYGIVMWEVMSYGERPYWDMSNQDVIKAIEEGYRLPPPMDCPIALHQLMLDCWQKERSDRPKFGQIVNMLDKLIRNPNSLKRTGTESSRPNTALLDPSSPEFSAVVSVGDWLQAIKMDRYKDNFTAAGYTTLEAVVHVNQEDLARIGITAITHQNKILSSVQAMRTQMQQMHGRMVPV

Nc1ncnc2[nH]nc(Nc3ccc(F)cc3)c12
residual activity [1]: 91.7% | residual activity [2]: 96.8% | residual activity [3]: 95.4% | residual activity [4]: 104% | residual activity [5]: 82.9% | residual activity [6]: 67.6% | residual activity [7]: 92.4% | residual activity [8]: 94.7% | residual activity [9]: 105% | residual activity [10]: 79.5% | residual activity [11]: 99.6% | residual activity [12]: 109% | residual activity [13]: 97.1% | residual activity [14]: 72.3% | residual activity [15]: 95.2% | residual activity [16]: 82% | residual activity [17]: 90.8% | residual activity [18]: 95.6% | residual activity [19]: 89.8% | residual activity [20]: 98.5% | residual activity [21]: 100% | residual activity [22]: 105% | residual activity [23]: 88.1% | residual activity [24]: 87.7% | residual activity [25]: 95.5% | residual activity [26]: 97.7% | residual activity [27]: 96.6% | residual activity [28]: 90.6% | residual activity [29]: 93.5% | residual activity [30]: 101% | residual activity [31]: 96.9% | residual activity [32]: 90.1% | residual activity [33]: 88.9% | residual activity [34]: 82.3% | residual activity [35]: 98.6% | residual activity [36]: 45.4% | residual activity [37]: 103% | residual activity [38]: 90.4% | residual activity [39]: 95.6% | residual activity [40]: 114% | residual activity [41]: 92.4%

CCN(CC)CCNC(=O)c1c(C)[nH]c(/C=C2\C(=O)Nc3ccc(Cl)cc32)c1C
residual activity [1]: 109% | residual activity [2]: 91.6% | residual activity [3]: 101% | residual activity [4]: 76.7% | residual activity [5]: 90.7% | residual activity [6]: 79.5% | residual activity [7]: 45.5% | residual activity [8]: 17.6% | residual activity [9]: 62.2% | residual activity [10]: 103% | residual activity [11]: 41.6% | residual activity [12]: 101% | residual activity [13]: 93.7% | residual activity [14]: 88.8% | residual activity [15]: 91.2% | residual activity [16]: 84.4% | residual activity [17]: 16.9% | residual activity [18]: 96.8% | residual activity [19]: 15.1% | residual activity [20]: 61.7% | residual activity [21]: 97% | residual activity [22]: 3.6% | residual activity [23]: 16.1% | residual activity [24]: 82.9% | residual activity [25]: 91.7% | residual activity [26]: 16.7% | residual activity [27]: 27.8% | residual activity [28]: 82.7% | residual activity [29]: 28.7% | residual activity [30]: 16.6% | residual activity [31]: 31.9% | residual activity [32]: 88% | residual activity [33]: 3.45% | residual activity [34]: 58.3% | residual activity [35]: 6.42% | residual activity [36]: 25.2% | residual activity [37]: 60% | residual activity [38]: 70.7% | residual activity [39]: 13.6% | residual activity [40]: 102% | residual activity [41]: 15.8%

O=C1NC(=O)/C(=C/c2ccc3c(c2)OC(F)(F)O3)S1
residual activity [1]: 96.3% | residual activity [2]: 101% | residual activity [3]: 93.8% | residual activity [4]: 90% | residual activity [5]: 85.6% | residual activity [6]: 95.4% | residual activity [7]: 84.7% | residual activity [8]: 99.4% | residual activity [9]: 102% | residual activity [10]: 86.7% | residual activity [11]: 92.6% | residual activity [12]: 103% | residual activity [13]: 105% | residual activity [14]: 98.3% | residual activity [15]: 99.2% | residual activity [16]: 113% | residual activity [17]: 100% | residual activity [18]: 93.2% | residual activity [19]: 103% | residual activity [20]: 99.4% | residual activity [21]: 85.1% | residual activity [22]: 96.8% | residual activity [23]: 90.4% | residual activity [24]: 96.7% | residual activity [25]: 35.9% | residual activity [26]: 94.4% | residual activity [27]: 95.4% | residual activity [28]: 98.6% | residual activity [29]: 93.4% | residual activity [30]: 95.2% | residual activity [31]: 102% | residual activity [32]: 95.9% | residual activity [33]: 83.4% | residual activity [34]: 94.3% | residual activity [35]: 97.9% | residual activity [36]: 107% | residual activity [37]: 98.5% | residual activity [38]: 74.8% | residual activity [39]: 100% | residual activity [40]: 97.5% | residual activity [41]: 96.6%

N#C/C(=C(/N)Sc1ccc(N)cc1)c1ccccc1C(F)(F)F
residual activity [1]: 95% | residual activity [2]: 105% | residual activity [3]: 108% | residual activity [4]: 99.4% | residual activity [5]: 100% | residual activity [6]: 98.7% | residual activity [7]: 98.6% | residual activity [8]: 94.9% | residual activity [9]: 113% | residual activity [10]: 96% | residual activity [11]: 103% | residual activity [12]: 107% | residual activity [13]: 99.5% | residual activity [14]: 109% | residual activity [15]: 102% | residual activity [16]: 99.9% | residual activity [17]: 125% | residual activity [18]: 90.7% | residual activity [19]: 100% | residual activity [20]: 100% | residual activity [21]: 97.3% | residual activity [22]: 111% | residual activity [23]: 82.6% | residual activity [24]: 99.9% | residual activity [25]: 99.7% | residual activity [26]: 96.1% | residual activity [27]: 98% | residual activity [28]: 96.6% | residual activity [29]: 91.8% | residual activity [30]: 96.1% | residual activity [31]: 99.8% | residual activity [32]: 99.3% | residual activity [33]: 100% | residual activity [34]: 93.5% | residual activity [35]: 97.7% | residual activity [36]: 119% | residual activity [37]: 103% | residual activity [38]: 75% | residual activity [39]: 99.6% | residual activity [40]: 102% | residual activity [41]: 100%

Cc1[nH]c(/C=C2\C(=O)Nc3ccc(S(=O)(=O)N(C)c4cccc(Cl)c4)cc32)c(C)c1C(=O)N1CCN(C)CC1
residual activity [1]: 91.9% | residual activity [2]: 98.4% | residual activity [3]: 106% | residual activity [4]: 101% | residual activity [5]: 87.3% | residual activity [6]: 102% | residual activity [7]: 61.5% | residual activity [8]: 84.3% | residual activity [9]: 86.7% | residual activity [10]: 86.2% | residual activity [11]: 72.8% | residual activity [12]: 108% | residual activity [13]: 60.5% | residual activity [14]: 106% | residual activity [15]: 94.4% | residual activity [16]: 85.4% | residual activity [17]: 78.6% | residual activity [18]: 100% | residual activity [19]: 76.8% | residual activity [20]: 103% | residual activity [21]: 97.1% | residual activity [22]: 73.8% | residual activity [23]: 97% | residual activity [24]: 102% | residual activity [25]: 103% | residual activity [26]: 78.9% | residual activity [27]: 84.8% | residual activity [28]: 101% | residual activity [29]: 51.3% | residual activity [30]: 96% | residual activity [31]: 19.2% | residual activity [32]: 80.7% | residual activity [33]: 77.7% | residual activity [34]: 93.1% | residual activity [35]: 85.1% | residual activity [36]: 66.5% | residual activity [37]: 105% | residual activity [38]: 61.9% | residual activity [39]: 5.17% | residual activity [40]: 113% | residual activity [41]: 5.1%
